Values quoted from earlier work as cited in US7419990B2, “Piperidine derivatives as melanocortin-4 receptor agonists” (Merck & Co., Inc., priority 2003, dated 2008).

Tests used:
erectile dysfunction = conditions: for duration of effect / onset of action: after an oral dose; for share of patients with adequate response: oral
[1] = tested on: psychogenic erectile dysfunction

| Molecule | duration of effect (erectile dysfunction) | onset of action (erectile dysfunction) [min] | share of patients with adequate response (erectile dysfunction) | duration of action ([1]; in vivo) | time to onset of erection ([1]; in vivo) [min] | response rate ([1]; injected intramuscularly or subcutaneously) [%] | absorption into the systemic circulation ([1]; oral route) |
| --- | --- | --- | --- | --- | --- | --- | --- |
| CCCc1nn(C)c2c(=O)[nH]c(-c3cc(S(=O)(=O)N4CCN(C)CC4)ccc3OCC)nc12 [sildenafil] | about 4 hours | 30 to 60 | about 70% |  |  |  |  |
| Cc1ccc(N(CC2=NCCN2)c2cccc(O)c2)cc1 [phentolamine] | 2 h | 5 to 30 | 35-40% |  |  |  |  |
| Ac-Nle-c[Asp-His-DPhe-Arg-Trp-Lys]-NH2 [MT-II] |  |  |  | approximately 2.5 hours | 10 to 20 | 75 | not absorbed into the systemic circulation |
